Results: ChEMBL document CHEMBL4837229 (Eur J Med Chem, 2021)
Active and inactive are the calls of the source. The rule behind the calls is not given here.

Legend:
[1] = target: Neuraminidase (Influenza A virus, UniProt B4URF0); set-up: species or system Influenza A virus (A/Anhui/1/2005(H5N1))
[2] = Inhibition of Influenza A virus (A/California/04/2009(H1N1)) Neuraminidase using MUNANA as substrate preincubated for 5 to 15 mins followed by substrate addition and measured after 30 mins by fluorescence spectrophotometric method
[3] = tested on: Influenza A virus; type: functional, organism-based; conditions: A/California/04/2009(H1N1), MDCK, time 46.0 hrs
[4] = tested on: MDCK; assay: Cytotoxicity against MDCK cells assessed as reduction in cell viability at 250 uM; type: cell-based, Canis lupus familiaris; conditions: dog
[5] = Stability of the compound in human plasma assessed as parent compound remaining measured immediately; type: ADME, cell-free; conditions: read-out: Stabilty
[6] = Stability of the compound in human plasma assessed as parent compound remaining measured after 10 mins; type: ADME, cell-free; conditions: read-out: Stabilty
[7] = Stability of the compound in human plasma assessed as parent compound remaining measured after 30 mins; type: ADME, cell-free; conditions: read-out: Stabilty
[8] = Stability of the compound in human plasma assessed as parent compound remaining measured after 60 mins; type: ADME, cell-free; conditions: read-out: Stabilty
[9] = Stability of the compound in human plasma assessed as parent compound remaining measured after 120 mins; type: ADME, cell-free; conditions: read-out: Stabilty
[10] = in vitro; conditions: mouse, liver microsomes
[11] = in vitro; conditions: rat, liver microsomes
[12] = in vitro; conditions: human, liver microsomes
[13] = tested on: Influenza A virus; assay: microbe, parasite or virus in culture; conditions: A/California/04/2009(H1N1), MDCK, 48 h

Sequence of Neuraminidase (B4URF0 whole entry): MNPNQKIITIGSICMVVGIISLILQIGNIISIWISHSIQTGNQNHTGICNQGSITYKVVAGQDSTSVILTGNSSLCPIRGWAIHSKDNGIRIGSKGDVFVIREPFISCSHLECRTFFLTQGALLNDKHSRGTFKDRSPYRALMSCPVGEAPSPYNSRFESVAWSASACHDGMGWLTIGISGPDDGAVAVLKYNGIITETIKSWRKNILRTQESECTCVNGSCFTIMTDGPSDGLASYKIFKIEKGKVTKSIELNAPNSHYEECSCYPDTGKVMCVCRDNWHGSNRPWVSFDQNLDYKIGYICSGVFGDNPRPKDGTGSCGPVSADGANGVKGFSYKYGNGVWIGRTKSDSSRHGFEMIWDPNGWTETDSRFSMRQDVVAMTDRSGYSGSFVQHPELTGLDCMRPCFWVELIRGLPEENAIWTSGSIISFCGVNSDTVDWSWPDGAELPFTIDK

Compound `CCCCCCCNNC(=O)N[C@H]1CC(C(=O)O)=C[C@@H](OC(CC)CC)[C@@H]1NC(C)=O` has an IC50 [1] of 575 nM.
`CCC(CC)O[C@@H]1C=C(C(=O)O)C[C@H](NC(=O)NNCc2cccc(OC)c2)[C@H]1NC(C)=O` showed an IC50 [1] of 326 nM.
With `CCC(CC)O[C@@H]1C=C(C(=O)O)C[C@H](NC(=O)NNCc2cccc(Cl)c2)[C@H]1NC(C)=O` the IC50 [1] was 5850 nM.
`CCC(CC)O[C@@H]1C=C(C(=O)O)C[C@H](NC(=O)NNCc2ccc(Cl)cc2)[C@H]1NC(C)=O` gave an IC50 [1] of 875 nM.
With `CCC(CC)O[C@@H]1C=C(C(=O)O)C[C@H](NC(=O)NN)[C@H]1NC(C)=O` the IC50 [1] was 26.8 nM, the IC50 [2] was 11.9 nM and the Activity [3] was “inactive”. For the same compound, the Activity [4] was “Non-Toxic”, the remaining at 0 min [5] was 100% and the remaining at 10 min [6] was 88.6%. It also gave a remaining at 0.5 h [7] of 98.8%, a remaining at 1 h [8] of 99.5% and a remaining at 2 h [9] of 107%. For the same compound, the half-life [10] was 49.7 min, the half-life [11] was 45.9 min and the half-life [12] was 72.9 min. The EC50 [13] was 7.8 nM.
Work on `CCCNNC(=O)N[C@H]1CC(C(=O)O)=C[C@@H](OC(CC)CC)[C@@H]1NC(C)=O` yielded an IC50 [1] of 241 nM.
With `CCC(CC)O[C@@H]1C=C(C(=O)O)C[C@H](NC(=O)NNCCc2ccccc2)[C@H]1NC(C)=O` the IC50 [1] was 2460 nM.
Compound `CCC(CC)O[C@@H]1C=C(C(=O)O)C[C@H](NC(=O)NNCCC(C)C)[C@H]1NC(C)=O` has an IC50 [1] of 1530 nM.
In the case of `CCC(CC)O[C@@H]1C=C(C(=O)O)C[C@H](NC(=O)NNCc2ccc(OC)cc2)[C@H]1NC(C)=O`, the IC50 [1] is reported as 567 nM.
Compound `CCC(CC)O[C@@H]1C=C(C(=O)O)C[C@H](N)[C@H]1NC(C)=O` [OSELTAMIVIR CARBOXYLATE] has an EC50 [13] of 1.4 nM.
In the case of `CCC(CC)O[C@@H]1C=C(C(=O)O)C[C@H](NC(=O)NNCc2ccccc2OC)[C@H]1NC(C)=O`, the IC50 [1] is reported as 2760 nM.
In the case of `CCC(CC)O[C@@H]1C=C(C(=O)O)C[C@H](NC(=O)NNCC2CC2)[C@H]1NC(C)=O`, the IC50 [1] is reported as 4110 nM.
For `CCCCCCCCNNC(=O)N[C@H]1CC(C(=O)O)=C[C@@H](OC(CC)CC)[C@@H]1NC(C)=O`, the IC50 [1] was greater than 10000 nM.
`CCC(CC)O[C@@H]1C=C(C(=O)O)C[C@H](NC(=O)NNCc2ccccc2Cl)[C@H]1NC(C)=O` gave an IC50 [1] of 586 nM.
`CCC(CC)O[C@@H]1C=C(C(=O)O)C[C@H](NC(=O)NNCCCc2ccccc2)[C@H]1NC(C)=O` gave an IC50 [1] of 9150 nM.
In the case of `CCC(CC)O[C@@H]1C=C(C(=O)O)C[C@H](NC(=O)NNC)[C@H]1NC(C)=O`, the IC50 [2] is reported as 249 nM.
`CCC(CC)O[C@@H]1C=C(C(=O)O)C[C@H](NC(=O)NNC2CCOCC2)[C@H]1NC(C)=O` showed an IC50 [1] of 1210 nM.
Work on `CCC(CC)O[C@@H]1C=C(C(=O)O)C[C@H](NC(N)=O)[C@H]1NC(C)=O` yielded an IC50 [1] of 254 nM and an IC50 [2] of 8.7 nM.
In the case of `CCC(CC)O[C@@H]1C=C(C(=O)O)C[C@H](NC(=O)NNC/C=C/c2ccccc2)[C@H]1NC(C)=O`, the IC50 [1] is reported as 7850 nM.
`CCCCCNNC(=O)N[C@H]1CC(C(=O)O)=C[C@@H](OC(CC)CC)[C@@H]1NC(C)=O` gave an IC50 [1] of 1100 nM.
In the case of `CCC(CC)O[C@@H]1C=C(C(=O)O)C[C@H](NC(=O)NNCC(C)C)[C@H]1NC(C)=O`, the IC50 [1] is reported as 2320 nM.
Compound `CCCCCCNNC(=O)N[C@H]1CC(C(=O)O)=C[C@@H](OC(CC)CC)[C@@H]1NC(C)=O` has an IC50 [1] of 4980 nM.
Compound `CCNNC(=O)N[C@H]1CC(C(=O)O)=C[C@@H](OC(CC)CC)[C@@H]1NC(C)=O` has an IC50 [1] of 576 nM.
Compound `CCCCNNC(=O)N[C@H]1CC(C(=O)O)=C[C@@H](OC(CC)CC)[C@@H]1NC(C)=O` has an IC50 [1] of 38.3 nM and an IC50 [2] of 332 nM.
Work on `CCC(CC)O[C@@H]1C=C(C(=O)O)C[C@H](NC(=O)NNCc2ccccc2)[C@H]1NC(C)=O` yielded an IC50 [1] of 4350 nM.
